Test results from patent US20150157568A1, “Treatment of Spasticity with Intrathecal Dantrolene” (Allergan, Inc., priority 2013, published 2015).

Test system: awake spastic rats
Assay: Spastic rat model (EMG activity during ankle dorsiflexion after spinal cord ischemia)
Format: in vivo, Sprague-Dawley rats
Experimental: FIG. 2 describes the rat spasticity model. (A,B) Electromyogram (EMG) responses (recorded from the gastrocnemius muscle) from an awake, but restrained normal and representative spastic rat when the ankle is rotated at velocity of (40°/3 sec) using a computer-controlled ankle rotational device. The presence of spasticity is identified by the appearance of burst EMG activity (active EMG). (C) To calculate the percent of inhibition of spastic muscle activity by a test agent during ankle dorsiflexion, animals were anaesthetized with isoflurane at the end of the experiment and the magnitude of active EMG during ankle dorsiflexion measured under isoflurane anaesthesia is then used as the maximum possible effect and is defined in each spastic animal. All drug treatment data generated after treatment are then normalized in using the maximum effect seen under isoflurane anaesthesia.
Animal: Male Sprague-Dawley rats (approximately 350 gram body weight) were used in the assay. The rats were housed at room temperature (65-82° F.) and relative humidity within the range between 30 to 70%. The room will be illuminated with fluorescent lighting on a daily 12 hour light/dark cycle. All animals will have free access to dry food. Municipal water will be freely available.
Spasticity development and measurement: Rats were exposed to transient spinal cord ischemia by aortic balloon occlusion for 10-12 minutes. Animals with fully developed spasticity will be selected at 4-8 weeks after ischemic injury and prepared for spasticity measurement. Presence of spasticity will be defined by increased peripheral muscle resistance measured during computer-controlled ankle dorsiflexion and correlative changes in EMG (electromyography) activity measured in gastrocnemius muscle (see FIG. 2).
An increased EMG activity induced by ankle dorsiflexion is a consistent and reliable measure of spasticity. Before administration of dantrolene, baseline EMG measurements were conducted. Animals with identified spasticity were then assigned to the experimental groups to be treated with dantrolene or vehicle through intraperitoneal and intrathecal routes.
Intraperitoneal dosing: Three different doses (5, 15, 50 mg/kg) of dantrolene and vehicle were injected intraperitoneally (6 rats per treatment/dose). After dantrolene administration, correlative changes in EMG were recorded at 15, 30, 60, 90, and 120 minutes following intraperitoneal injection. Changes in baseline EMG activity and ankle-rotation evoked EMG activity were then analyzed and the efficacy of treatment on spasticity calculated.
Intrathecal dosing: Animals with identified spasticity were implanted intrathecally with a fine plastic (e.g., PE-10) catheter for bolus drug delivery. Two to three days after intrathecal catheter implantation, the baseline spasticity response was measured and animals were then injected IT with dantrolene (250 μg, 6 rats) and spasticity response was measured for 2 hrs. In control animals (6 rats) vehicle was injected only.

[1] = intraperitoneal (IP), 50 mg/kg, single injection, awake spastic rats

| SMILES | effect on spastic activity (positive control, maximal anti-spastic effect) (isoflurane anesthesia at the end of the experiment, defined as 0%) | effect of systemic administration on spastic activity (intraperitoneal (IP) injection, 5, 15, 50 mg/kg, awake spastic rats) | spastic activity, % of the pre-treatment level (intraperitoneal (IP), 50 mg/kg, single injection, highest dose tested, awake spastic rats) | duration of reduction of spastic activity [1] | reduction of spastic activity [1] | anti-spastic effect of intrathecal administration (intrathecal (IT), single 250 μg bolus injection, awake spastic rats (n=6), at least as robust as 50 mg/kg systemic) |
| --- | --- | --- | --- | --- | --- | --- |
| FC(F)OC(Cl)C(F)(F)F (stereo not drawn) [Isoflurane] | virtually eliminated all spastic activity | – | – | – | – | – |
| O=C1CN(/N=C/c2ccc(-c3ccc([N+](=O)[O-])cc3)o2)C(O)=N1 [dantrolene] | – | reduces spastic activity in the awake spastic rats in a dose dependent manner | about 30% | at least 2 hours | 70% | potent anti-spastic effect |
